Source: patent US10851073B2, “Protein tyrosine phosphatase inhibitors and methods of use thereof” (Calico Life Sciences LLC, priority 2019, dated 2020)

Tests used:
[1] = target: T1, His tagged full-length PTPN1 protein (Homo sapiens, UniProt P18031); assay: Mobility shift assay (MSA) used to determine potency of PTPN1 inhibitors; format: biochemical; settings: enzyme 0.5 nM, substrate 2 μM
T1 construct: made in house
T1 sequence (P18031 with tags, fused parts or gaps): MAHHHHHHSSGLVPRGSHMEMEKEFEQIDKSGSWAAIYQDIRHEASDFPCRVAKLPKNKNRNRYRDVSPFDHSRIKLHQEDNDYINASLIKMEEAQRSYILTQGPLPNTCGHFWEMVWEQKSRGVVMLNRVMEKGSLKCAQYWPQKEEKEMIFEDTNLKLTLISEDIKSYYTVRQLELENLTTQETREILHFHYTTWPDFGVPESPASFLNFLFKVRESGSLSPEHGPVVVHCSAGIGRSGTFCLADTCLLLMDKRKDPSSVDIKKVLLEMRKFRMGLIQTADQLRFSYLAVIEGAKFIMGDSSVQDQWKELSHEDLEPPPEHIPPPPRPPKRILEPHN
Experimental: Example 228: Mobility Shift Assay (MSA) Used to Determine Potency of PTPN1 Inhibitors
Compound activity was determined using in house His tagged full-length PTPN1 protein (SEQ ID NO: 3) in an in vitro enzymatic reaction. The enzymatic assay used to determine activity is a mobility shift assay using a LabChip EZ Reader by Caliper Life Sciences. The enzymatic reaction was carried out in assay buffer (50 mM HEPES pH 7.5, 1 mM EGTA, 10 mM EDTA, 0.01% Tween® 20, and 2 mM DTT). The compounds were dispensed on a white 384 well ProxiPlate™ (PerkinElmer Cat^# 6008289) plate using a Labcyte Echo® liquid handler at varying concentrations (12 point, 1:3 dilution). The enzyme (at 0.5 nM) was incubated with compound for 10 minutes at room temperature. Then the substrate (phosphorylated insulin receptor probe sequence: ((OG488)-(NH—CH2—CH2—O—CH2—CH2—O—CH2—CO)-T-R-D-I-(PY)-E-T-D-Y-Y-R-K-K-NH2) (SEQ ID NO: 2) was added at 2 μM to the plates and incubated for another 10 minutes at room temperature. Finally, a quench solution (water and 4-bromo-3-(2-oxo-2-propoxyethoxy)-5-(3-{[1-(phenylmethanesulfonyl)piperidin-4-yl]amino}phenyl)thiophene-2-carboxylic acid) was added to the plates, which were then run on the EZ Reader (excitation 488 nm, emission 530 nm) to measure % conversion (the amount of phosphorylated substrate which was de-phosphorylated by PTPN1). […] The % inhibition was then used to calculate the IC50 values.

[2] = target: T2, His tagged PTPN2 (TC45) protein (Homo sapiens, UniProt P17706); assay: Mobility shift assay used to determine potency of PTPN2 inhibitors; format: biochemical; settings: enzyme 0.5 nM, substrate 2 μM; read-out: PTPN2 MSA IC50
T2 construct: made in house
T2 sequence (P17706 with tags, fused parts or gaps isoform P17706-2): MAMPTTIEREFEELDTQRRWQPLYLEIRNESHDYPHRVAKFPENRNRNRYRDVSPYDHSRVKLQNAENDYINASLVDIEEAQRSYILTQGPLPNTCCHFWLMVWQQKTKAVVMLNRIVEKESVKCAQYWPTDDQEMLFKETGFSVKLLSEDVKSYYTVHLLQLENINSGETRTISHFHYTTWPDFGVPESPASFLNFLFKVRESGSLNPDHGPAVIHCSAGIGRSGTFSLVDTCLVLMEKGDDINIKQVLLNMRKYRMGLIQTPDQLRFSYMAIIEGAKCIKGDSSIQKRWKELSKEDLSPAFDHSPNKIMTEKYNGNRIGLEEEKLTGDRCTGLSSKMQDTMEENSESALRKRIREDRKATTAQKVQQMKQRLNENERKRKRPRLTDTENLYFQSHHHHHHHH
Experimental: Example 227: Mobility Shift Assay Used to Determine Potency of PTPN2 Inhibitors
Compound activity was determined using in house His tagged PTPN2 (TC45) protein (SEQ ID NO: 1) in an in vitro enzymatic reaction. The enzymatic assay used to determine activity was a mobility shift assay using a LabChip EZ Reader by Caliper Life Sciences. The enzymatic reaction was carried out in assay buffer (50 mM HEPES pH 7.5, 1 mM EGTA, 10 mM EDTA, 0.01% Tween® 20, and 2 mM DTT). The compounds were dispensed on a white 384 well ProxiPlate™ (PerkinElmer Catalog #6008289) plate using the Labcyte Echo at varying concentrations (12 point, 1:3 dilution). The enzyme (at 0.5 nM) was incubated with compound for 10 minutes at room temperature. Then the substrate (phosphorylated insulin receptor probe sequence: ((OG488)-(NH—CH2—CH2—O—CH2—CH2—O—CH2—CO)-T-R-D-I-(PY)-E-T-D-Y-Y-R-K-K-NH2) (SEQ ID NO: 2) was added at 2 μM to the plates and incubated for another 10 minutes at room temperature. Finally, a quench solution (water and 4-bromo-3-(2-oxo-2-propoxyethoxy)-5-(3-{[1-(phenylmethanesulfonyl)piperidin-4-yl]amino}phenyl)thiophene-2-carboxylic acid) was added to the plates, which were then run on the EZ Reader (excitation 488 nm, emission 530 nm) to measure % conversion (the amount of phosphorylated substrate which was de-phosphorylated by PTPN2). […] The % inhibition was then used to calculate the IC50 values.

SMILES	IC50 [1] [nM]	IC50 [2] [nM]
C=CCC1(N)CCc2cc(O)c(N3CC(=O)NS3(=O)=O)c(F)c2C1 (stereo not shown) [Compound 240, 5-[7-amino-1-fluoro-3-hydroxy-7-(prop-2-en-1-yl)-5,6,7,8-tetrahydronaphthalen-2-yl]-1λ^6,2,5-thiadiazolidine-1,1,3-trione]	> 100	10 to 100
CC(C)(O)CCOC1CCc2c(cc(O)c(N3CC(=O)NS3(=O)=O)c2F)C1 (stereo not shown) [Compound 309, 5-[1-fluoro-3-hydroxy-6-(3-hydroxy-3-methylbutoxy)-5,6,7,8-tetrahydronaphthalen-2-yl]-1λ^6,2,5-thiadiazolidine-1,1,3-trione]	10 to 100	10 to 100
O=C1CN(c2c(O)cc3c(c2F)CCC(OCCCC(F)F)C3)S(=O)(=O)N1 (stereo not shown) [Compound 312, 5-[6-(4,4-difluorobutoxy)-1-fluoro-3-hydroxy-5,6,7,8-tetrahydronaphthalen-2-yl]-1λ^6,2,5-thiadiazolidine-1,1,3-trione]	10 to 100	10 to 100
CC(C)OCCNC1CCc2cc(O)c(N3CC(=O)NS3(=O)=O)c(F)c2C1 (stereo not shown) [Compound 186, 5-[1-fluoro-3-hydroxy-7-({2-[(propan-2-yl)oxy]ethyl}amino)-5,6,7,8-tetrahydronaphthalen-2-yl]-1λ^6,2,5-thiadiazolidine-1,1,3-trione]	10 to 100	10 to 100
CC(Cc1ccc(C(C)C)cc1)CN1CCc2cc(O)c(N3CC(=O)NS3(=O)=O)c(F)c2C1 (stereo not shown) [Compound 295, 5-(8-fluoro-6-hydroxy-2-{2-methyl-3-[4-(propan-2-yl)phenyl]propyl}-1,2,3,4-tetrahydroisoquinolin-7-yl)-1λ^6,2,5-thiadiazolidine-1,1,3-trione]	> 100	10 to 100
NCCOC1CCc2c(cc(O)c(N3CC(=O)NS3(=O)=O)c2F)C1 (stereo not shown) [Compound 319, 5-[6-(2-aminoethoxy)-1-fluoro-3-hydroxy-5,6,7,8-tetrahydronaphthalen-2-yl]-1λ^6,2,5-thiadiazolidine-1,1,3-trione]	> 100	10 to 100
O=C1CN(c2c(O)cc3c(c2F)CC(CNCCC2CCC2)C3)S(=O)(=O)N1 (stereo not shown) [Compound 305, 5-(2-{[(2-cyclobutylethyl)amino]methyl}-4-fluoro-6-hydroxy-2,3-dihydro-1H-inden-5-yl)-1λ^6,2,5-thiadiazolidine-1,1,3-trione]	10 to 100	10 to 100
O=C1CN(c2c(O)cc3c(c2F)CCC(OCC2CC2)C3)S(=O)(=O)N1 (stereo not shown) [Compound 310, 5-[6-(cyclopropylmethoxy)-1-fluoro-3-hydroxy-5,6,7,8-tetrahydronaphthalen-2-yl]-1λ^6,2,5-thiadiazolidine-1,1,3-trione]	10 to 100	10 to 100
COC1CCc2cc(O)c(N3CC(=O)NS3(=O)=O)c(F)c2C1 (stereo not shown) [Compound 110, 5-(1-fluoro-3-hydroxy-7-methoxy-5,6,7,8-tetrahydronaphthalen-2-yl)-1λ^6,2,5-thiadiazolidine-1,1,3-trione]	10 to 100	10 to 100
Cc1noc(C)c1CNC1CCc2cc(O)c(N3CC(=O)NS3(=O)=O)c(F)c2C1 (stereo not shown) [Compound 287, 5-(7-{[(3,5-dimethyl-1,2-oxazol-4-yl)methyl]amino}-1-fluoro-3-hydroxy-5,6,7,8-tetrahydronaphthalen-2-yl)-1λ^6,2,5-thiadiazolidine-1,1,3-trione]	> 100	10 to 100
CC(C)CCN(Cc1ccccn1)C1CCc2cc(O)c(N3CC(=O)NS3(=O)=O)c(F)c2C1 (stereo not shown) [Compound 154, 5-(1-fluoro-3-hydroxy-7-{(3-methylbutyl)[(pyridin-2-yl)methyl]amino}-5,6,7,8-tetrahydronaphthalen-2-yl)-1λ^6,2,5-thiadiazolidine-1,1,3-trione]	10 to 100	1 to 10
O=C1CN(c2c(O)cc3c(c2F)CN(CC(O)C2CCCCC2)CC3)S(=O)(=O)N1 (stereo not shown) [Compound 215, 5-[2-(2-cyclohexyl-2-hydroxyethyl)-8-fluoro-6-hydroxy-1,2,3,4-tetrahydroisoquinolin-7-yl]-1λ^6,2,5-thiadiazolidine-1,1,3-trione]	> 100	> 100

Further lines, with some results ahead:

IC50 [1] [nM]	SMILES	IC50 [2] [nM]
10 to 100	O=C1CN(c2c(O)cc3c(c2F)CCC(NCC2CC2)C3)S(=O)(=O)N1 (stereo not shown) [Compound 318, 5-{6-[(cyclopropylmethyl)amino]-1-fluoro-3-hydroxy-5,6,7,8-tetrahydronaphthalen-2-yl}-1λ^6,2,5-thiadiazolidine-1,1,3-trione]	1 to 10
10 to 100	COC1CCc2c(F)c(O)c(N3CC(=O)NS3(=O)=O)c(F)c2C1 (stereo not shown) [Compound 114, 5-(1,4-difluoro-3-hydroxy-7-methoxy-5,6,7,8-tetrahydronaphthalen-2-yl)-1λ^6,2,5-thiadiazolidine-1,1,3-trione]	10 to 100
10 to 100	CC(C)(CCN[C@H]1CCc2cc(O)c(N3CC(=O)NS3(=O)=O)c(F)c2C1)C(F)(F)F (single isomer, unassigned) [Compound 176]	10 to 100
10 to 100	O=C1CN(c2c(O)cc3c(c2F)CN(C(=O)NCC2CCOC2)CC3)S(=O)(=O)N1 (stereo not shown) [Compound 270, 8-fluoro-6-hydroxy-N-[(oxolan-3-yl)methyl]-7-(1,1,4-trioxo-1λ^6,2,5-thiadiazolidin-2-yl)-3,4-dihydroisoquinoline-2(1H)-carboxamide]	10 to 100
10 to 100	CC(CCN1CCc2cc(O)c(N3CC(=O)NS3(=O)=O)c(F)c2C1)CC(C)(C)C (stereo not shown) [Compound 302, 5-[8-fluoro-6-hydroxy-2-(3,5,5-trimethylhexyl)-1,2,3,4-tetrahydroisoquinolin-7-yl]-1λ^6,2,5-thiadiazolidine-1,1,3-trione]	1 to 10
1 to 10	O=C1CN(c2c(O)cc3c(c2F)CC(NCCC2CC2)CC3)S(=O)(=O)N1 (stereo not shown) [Compound 101, 5-{7-[(2-cyclopropylethyl)amino]-1-fluoro-3-hydroxy-5,6,7,8-tetrahydronaphthalen-2-yl}-1λ^6,2,5-thiadiazolidine-1,1,3-trione]	1 to 10
1 to 10	O=C1CN(c2c(O)cc3c(c2F)CN(CCC24CCC(CC2)C4)CC3)S(=O)(=O)N1 [Compound 239, 5-{2-[2-(bicyclo[2.2.1]heptan-1-yl)ethyl]-8-fluoro-6-hydroxy-1,2,3,4-tetrahydroisoquinolin-7-yl}-1λ^6,2,5-thiadiazolidine-1,1,3-trione]	1 to 10
1 to 10	Cc1noc(C)c1CCNC1CCc2cc(O)c(N3CC(=O)NS3(=O)=O)c(F)c2C1 (stereo not shown) [Compound 290, 5-(7-{[2-(3,5-dimethyl-1,2-oxazol-4-yl)ethyl]amino}-1-fluoro-3-hydroxy-5,6,7,8-tetrahydronaphthalen-2-yl)-1λ^6,2,5-thiadiazolidine-1,1,3-trione]	1 to 10
